Experimental data as given in DBAASP.
≈ marks a conversion by molar mass, not a printed value.

Legend:
Test in all cases: ≥ marks a high value that may be exact or a test limit, other limits are often not marked, values filed in µg/mL are converted to µM
[1] = test system: Klebsiella pneumoniae ATCC 10031
[2] = test system: Salmonella enterica subsp. enterica serovar Typhimurium ATCC 14028
[3] = test system: Escherichia coli ATCC 11219
[4] = test system: Staphylococcus aureus ATCC 6538
[5] = test system: Pseudomonas aeruginosa ATCC 13388
Escherichia coli ML-35 = test system: Escherichia coli ML-35
Bacillus megaterium Bm11 = test system: Bacillus megaterium Bm11
[6] = test system: Staphylococcus aureus ATCC 25923
[7] = test system: Escherichia coli ATCC 25922
[8] = test system: Bacillus subtilis CCT 2471
[9] = test system: Staphylococcus epidermidis
[10] = test system: Escherichia coli CCT 1371
[11] = test system: Staphylococcus saprophyticus
Candida albicans = test system: Candida albicans
[12] = test system: Pseudomonas aeruginosa ATCC 15442
[13] = test system: Xanthomonas campestris pv. Vesicatoria 2133-2
[14] = test system: Erwinia amylovora PMV 6076
[15] = test system: Pseudomonas syringae pv. syringae EPS 94
[16] = test system: Pseudomonas aeruginosa H374
[17] = test system: Salmonella enterica subsp. enterica serovar Typhimurium ATCC 14028s
[18] = test system: Pseudomonas aeruginosa H744
Escherichia coli KF111 = test system: Escherichia coli KF111
[19] = test system: Pseudomonas aeruginosa K799
Escherichia coli KF130 = test system: Escherichia coli KF130
[20] = test system: Pseudomonas aeruginosa ATCC 27853
Escherichia coli UB1005 = test system: Escherichia coli UB1005
Aspergillus fumigatus = test system: Aspergillus fumigatus

SMILES: CC[C@H](C)[C@H](NC(=O)CN)C(=O)N[C@@H](Cc1cnc[nH]1)C(=O)N[C@@H](CCCCN)C(=O)N[C@H](C(=O)N[C@@H](CC(C)C)C(=O)N[C@@H](CCCCN)C(=O)N[C@@H](Cc1ccc(O)cc1)C(=O)NCC(=O)N[C@@H](CCCCN)C(=O)N1CCC[C@H]1C(=O)N[C@@H](CO)C(N)=O)[C@@H](C)CC [GIHKILKYGKPS]
- MIC [1]: 5 µM (≈ 6.7 µg/mL)
- MIC [2]: 10 µM (≈ 13.4 µg/mL)
- MIC [3]: 5 µM (≈ 6.7 µg/mL)
- MIC [4]: 10 µM (≈ 13.4 µg/mL)
- MIC [5]: 20 µM (≈ 26.8 µg/mL)

SMILES: CC[C@H](C)[C@H](NC(=O)CN)C(=O)N[C@@H](CCCCN)C(=O)N[C@@H](CCCCN)C(=O)N[C@H](C(=O)N[C@@H](CC(C)C)C(=O)N[C@@H](CCCCN)C(=O)N[C@@H](Cc1ccc(O)cc1)C(=O)NCC(=O)N[C@@H](CCCCN)C(=O)N[C@@H](CCCCN)C(=O)N[C@@H](CO)C(N)=O)[C@@H](C)CC [GIKKILKYGKKS]
- MIC [1]: ≥ 50 µM
- MIC [2]: 20 µM (≈ 27.2 µg/mL)
- MIC [3]: 20 µM (≈ 27.2 µg/mL)
- MIC [4]: 5 µM (≈ 6.81 µg/mL)
- MIC [5]: ≥ 50 µM

SMILES: CC[C@H](C)[C@H](NC(=O)[C@H](CCCCN)NC(=O)[C@H](CCCCN)NC(=O)[C@H](CCCN=C(N)N)NC(=O)[C@H](CC(C)C)NC(=O)[C@H](CCCN=C(N)N)NC(=O)[C@H](CCCN=C(N)N)NC(=O)[C@H](CC(C)C)NC(=O)[C@H](CC(C)C)NC(=O)CN)C(=O)NCC(=O)N[C@@H](CCC(=O)O)C(=O)N[C@H](C(=O)N[C@@H](Cc1ccccc1)C(=O)N[C@@H](CCCCN)C(=O)N[C@@H](CCCCN)C(=O)N[C@@H](Cc1ccc(O)cc1)C(=O)NCC(=O)O)[C@@H](C)CC [GLLRRLRKKIGEIFKKYG]
- MIC [2]: 1 µM (≈ 2.18 µg/mL)
- MIC (Escherichia coli ML-35): 2 µM (≈ 4.35 µg/mL)
- MIC (Bacillus megaterium Bm11): 4 µM (≈ 8.7 µg/mL)
- MIC [6]: 4 µM (≈ 8.7 µg/mL)

SMILES: CC[C@H](C)[C@H](N)C(=O)N[C@@H](CC(N)=O)C(=O)N[C@@H](CC(C)C)C(=O)N[C@@H](CC(C)C)C(=O)N[C@@H](CCCCN)C(=O)N[C@H](C(=O)N[C@@H](C)C(=O)N[C@@H](CCCCN)C(=O)NCC(=O)N[C@H](C(=O)N[C@H](C(=O)N[C@@H](CCCCN)C(=O)N[C@@H](CO)C(=O)N[C@@H](CC(C)C)C(=O)O)[C@@H](C)CC)[C@@H](C)CC)[C@@H](C)CC [INLLKIAKGIIKSL]
- MIC [7]: 16.4 µM (≈ 25 µg/mL)
- MIC [8]: ≥ 65.6 µM
- MIC [9]: ≥ 32.8 µM
- MIC [10]: ≥ 32.8 µM
- MIC [11]: 16.4 µM (≈ 25 µg/mL)
- MIC (Candida albicans): > 65.6 µM
- MIC [6]: 6.56 µM (≈ 10 µg/mL)
- MIC [4]: 65.6 µM (≈ 100 µg/mL)
- MIC [12]: ≥ 65.6 µM

SMILES: CC(C)C[C@H](NC(=O)[C@H](Cc1cnc[nH]1)NC(=O)[C@H](CCC(=O)O)NC(=O)[C@H](Cc1c[nH]c2ccccc12)NC(=O)[C@H](CC(=O)O)NC(=O)[C@H](CCCCN)NC(=O)[C@H](CC(C)C)NC(=O)[C@H](Cc1cnc[nH]1)NC(=O)[C@H](CCC(=O)O)NC(=O)[C@H](Cc1c[nH]c2ccccc12)NC(=O)[C@H](CC(=O)O)NC(=O)[C@H](CCCCN)NC(=O)[C@H](CC(C)C)NC(=O)[C@H](Cc1cnc[nH]1)NC(=O)[C@H](CCC(=O)O)NC(=O)[C@H](Cc1c[nH]c2ccccc12)NC(=O)[C@H](CC(=O)O)NC(=O)[C@@H](N)CCCCN)C(=O)O [KDWEHLKDWEHLKDWEHL]
- MIC [13]: ≥ 100 µM
- MIC [14]: ≥ 100 µM
- MIC [15]: ≥ 100 µM

SMILES: CC[C@H](C)[C@H](NC(=O)[C@H](CCCCN)NC(=O)[C@H](CCCCN)NC(=O)[C@H](Cc1ccccc1)NC(=O)[C@H](CC(C)C)NC(=O)[C@H](CCCCN)NC(=O)[C@@H](N)CCCCN)C(=O)N[C@@H](CC(C)C)C(=O)N[C@@H](CCCCN)C(=O)N[C@@H](Cc1ccc(O)cc1)C(=O)N[C@@H](CC(C)C)C(=O)O [KKLFKKILKYL]
- MIC [13]: 14.1 µM (≈ 20.1 µg/mL)
- MIC [14]: 8.66 µM (≈ 12.3 µg/mL)
- MIC [15]: 8.66 µM (≈ 12.3 µg/mL)

SMILES: CC[C@H](C)[C@H](NC(=O)[C@@H]1CCCN1C(=O)[C@H](CCCCN)NC(=O)[C@H](CC(C)C)NC(=O)[C@H](C)NC(=O)[C@@H](NC(=O)[C@@H](NC(=O)[C@H](CC(C)C)NC(=O)[C@@H](NC(=O)[C@H](CCCCN)NC(=O)[C@H](CCCCN)NC(=O)[C@H](C)NC(=O)[C@H](C)NC(=O)[C@H](CO)NC(=O)[C@@H](NC(=O)[C@H](CC(C)C)NC(=O)[C@H](CCCCN)NC(=O)[C@H](CCCCN)NC(=O)[C@H](CC(C)C)NC(=O)[C@H](Cc1ccccc1)NC(=O)[C@H](CO)NC(=O)[C@H](CCCCN)NC(=O)[C@H](Cc1c[nH]c2ccccc12)NC(=O)[C@@H](N)CCCCN)[C@@H](C)O)C(C)C)[C@@H](C)O)[C@@H](C)O)C(=O)N[C@@H](CO)C(=O)N[C@@H](CO)C(=O)O [KWKSFLKKLTSAAKKVLTTALKPISS]
- MIC [16]: 1.39 µM (≈ 4 µg/mL)
- MIC [17]: 1.39 µM (≈ 4 µg/mL)
- MIC [18]: 1.39 µM (≈ 4 µg/mL)
- MIC (Escherichia coli KF111): 0.348 µM (≈ 1 µg/mL)
- MIC [9]: 1.39 µM (≈ 4 µg/mL)
- MIC [19]: 2.78 µM (≈ 8 µg/mL)
- MIC (Escherichia coli KF130): 0.348 µM (≈ 1 µg/mL)
- MIC [20]: 4 µM (≈ 11.5 µg/mL)
- MIC (Escherichia coli UB1005): 0.348 µM (≈ 1 µg/mL)

SMILES: CC[C@H](C)[C@H](NC(=O)[C@@H]1CCCN1C(=O)[C@H](CCCCN)NC(=O)[C@H](CC(C)C)NC(=O)[C@H](C)NC(=O)[C@@H](NC(=O)[C@H](Cc1ccc(O)cc1)NC(=O)[C@H](Cc1ccccc1)NC(=O)[C@@H](NC(=O)[C@@H](NC(=O)[C@H](CCCCN)NC(=O)[C@@H](NC(=O)[C@@H]1CCCN1C(=O)[C@H](CO)NC(=O)[C@H](CCCCN)NC(=O)[C@H](Cc1ccccc1)NC(=O)[C@@H](NC(=O)[C@H](CCCCN)NC(=O)[C@H](CC(C)C)NC(=O)[C@H](Cc1ccccc1)NC(=O)[C@H](CO)NC(=O)[C@H](CCCCN)NC(=O)[C@H](Cc1c[nH]c2ccccc12)NC(=O)[C@@H](N)CCCCN)[C@@H](C)O)C(C)C)[C@@H](C)O)C(C)C)[C@@H](C)O)C(=O)N[C@@H](CO)C(=O)N[C@@H](CO)C(=O)O [KWKSFLKTFKSPVKTVFYTALKPISS]
- MIC [16]: 10.6 µM (≈ 32 µg/mL)
- MIC [17]: 5.28 µM (≈ 16 µg/mL)
- MIC [18]: 10.6 µM (≈ 32 µg/mL)
- MIC (Escherichia coli KF111): 1.32 µM (≈ 4 µg/mL)
- MIC [9]: 10.6 µM (≈ 32 µg/mL)
- MIC [19]: 10.6 µM (≈ 32 µg/mL)
- MIC (Escherichia coli KF130): 1.32 µM (≈ 4 µg/mL)
- MIC [20]: 8 µM (≈ 24.3 µg/mL)
- MIC (Escherichia coli UB1005): 0.659 µM (≈ 2 µg/mL)

SMILES: CC(C)C[C@H](NC(=O)[C@H](Cc1ccccc1)NC(=O)[C@@H]1CCCN1C(=O)[C@H](Cc1c[nH]c2ccccc12)NC(=O)[C@H](CS)NC(=O)[C@@H](NC(=O)[C@H](Cc1c[nH]c2ccccc12)NC(=O)[C@@H]1CCCN1C(=O)[C@H](Cc1ccccc1)NC(=O)[C@H](CCCN=C(N)N)NC(=O)[C@H](CCCN=C(N)N)NC(=O)[C@@H](N)CCCN=C(N)N)C(C)C)C(=O)N[C@@H](CCCN=C(N)N)C(=O)N[C@@H](CCCN=C(N)N)C(=O)N[C@@H](CCCN=C(N)N)C(=O)O [RRRFPWVCWPFLRRR]
- MIC (Aspergillus fumigatus): ≥ 117 µM
- MIC (Candida albicans): 469 µM (≈ 1000 µg/mL)

SMILES: CC[C@H](C)[C@H](NC(=O)CNC(=O)[C@@H](N)Cc1c[nH]c2ccccc12)C(=O)N[C@@H](CCCN=C(N)N)C(=O)N[C@@H](CC(=O)O)C(=O)N[C@H](C(=O)N[C@@H](CC(C)C)C(=O)N[C@@H](CCCCN)C(=O)N[C@@H](Cc1ccc(O)cc1)C(=O)NCC(=O)N[C@@H](CCCCN)C(=O)N1CCC[C@H]1C(=O)N[C@@H](CO)C(=O)O)[C@@H](C)CC [WGIRDILKYGKPS]
- MIC [1]: 30 µM (≈ 46 µg/mL)
- MIC [2]: 8 µM (≈ 12.3 µg/mL)
- MIC [3]: 15 µM (≈ 23 µg/mL)
- MIC [4]: 15 µM (≈ 23 µg/mL)
- MIC [5]: 5 µM (≈ 7.66 µg/mL)
